Experimental findings from US20240391936A1, “TETRAHYDROTHIENO PYRIDINE DERIVATIVES AS DDRS INHIBITORS” (CHIESI FARMACEUTICI S.P.A., priority 2021, published 2024) are described below.

Test [1] deals with T1, DDR1 (Homo sapiens, UniProt Q08345). As to the kind of experiment: DDR1 binding assay (LanthaScreen Europium Kinase Binding assay). Details: purchased Carna Biosciences. Particulars: binding assay, 5 nM DDR1, 20 nM Kinase Tracer 178; Ki from IC50 by Cheng-Prusoff; read-out: Ki DDR1. The procedure, abridged:
(§1)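 Compounds incubated 1 h at room temperature with 5 nM kinase, Kinase Tracer 178 (20 nM for DDR1, 10 nM for DDR2) and 2 nM Eu-anti-GST antibody in pH 7.5 HEPES/MgCl2/EGTA/BRIJ35 buffer. TR-FRET 665/615 nm ratio read after 340 nm excitation; IC50 from 4-parameter fit, converted to Ki by Cheng-Prusoff.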
On the technique in general: Time-resolved FRET reads energy transfer from a long-lived donor to a nearby acceptor.

For another test, the target named is T2, DDR2 (Homo sapiens, UniProt Q16832).
T2 sequence (Q16832 22-855): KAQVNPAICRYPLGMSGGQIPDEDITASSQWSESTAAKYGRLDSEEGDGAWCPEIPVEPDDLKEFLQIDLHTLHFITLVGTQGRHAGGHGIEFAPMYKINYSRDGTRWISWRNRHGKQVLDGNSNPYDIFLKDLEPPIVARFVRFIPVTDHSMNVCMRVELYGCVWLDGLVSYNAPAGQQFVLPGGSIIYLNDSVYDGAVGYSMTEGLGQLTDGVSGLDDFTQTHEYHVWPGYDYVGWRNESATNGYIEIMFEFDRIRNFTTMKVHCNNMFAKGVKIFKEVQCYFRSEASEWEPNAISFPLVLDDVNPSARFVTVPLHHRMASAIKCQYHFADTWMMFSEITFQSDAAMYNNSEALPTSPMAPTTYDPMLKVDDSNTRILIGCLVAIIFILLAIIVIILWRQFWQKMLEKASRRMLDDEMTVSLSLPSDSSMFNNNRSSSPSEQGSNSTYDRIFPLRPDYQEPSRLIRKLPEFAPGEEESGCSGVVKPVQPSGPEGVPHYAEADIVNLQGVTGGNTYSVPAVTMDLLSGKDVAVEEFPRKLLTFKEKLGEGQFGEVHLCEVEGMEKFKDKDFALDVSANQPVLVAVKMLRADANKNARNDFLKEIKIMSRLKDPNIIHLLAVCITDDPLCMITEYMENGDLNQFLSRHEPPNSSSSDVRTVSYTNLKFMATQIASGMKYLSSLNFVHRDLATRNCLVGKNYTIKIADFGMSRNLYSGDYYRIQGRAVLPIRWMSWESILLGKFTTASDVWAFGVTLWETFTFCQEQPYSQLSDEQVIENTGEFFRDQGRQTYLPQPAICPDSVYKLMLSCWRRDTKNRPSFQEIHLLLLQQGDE
As to the kind of experiment: DDR2 binding assay (LanthaScreen Europium Kinase Binding assay). Set-up: purchased Life Technologies. Particulars: binding assay, 5 nM DDR2, 10 nM Kinase Tracer 178; Ki from IC50 by Cheng-Prusoff; read-out: Ki DDR2. The procedure, abridged: as §1

The target of test [2] is T1, DDR1. As to the kind of experiment: DDR1 cell based assay (PathHunter U2OS DDR1 assay). Set-up: host or cells: U2OS-DDR1 (PathHunter). Particulars: U2OS-DDR1 cells, bovine Type II Collagen 20 μg/ml. The procedure, abridged: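 U2OS-DDR1 PathHunter cells preincubated 30 min with compound, then stimulated overnight at 37 °C with 20 μg/ml bovine type II collagen. Luminescent complementation signal read after 1 h detection at room temperature; normalized to vehicle (0%) and collagen-only (100%) controls, IC50 from variable-slope sigmoidal fit.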

Molecules are shown by their SMILES.

T1 sequence (Q08345 19-913): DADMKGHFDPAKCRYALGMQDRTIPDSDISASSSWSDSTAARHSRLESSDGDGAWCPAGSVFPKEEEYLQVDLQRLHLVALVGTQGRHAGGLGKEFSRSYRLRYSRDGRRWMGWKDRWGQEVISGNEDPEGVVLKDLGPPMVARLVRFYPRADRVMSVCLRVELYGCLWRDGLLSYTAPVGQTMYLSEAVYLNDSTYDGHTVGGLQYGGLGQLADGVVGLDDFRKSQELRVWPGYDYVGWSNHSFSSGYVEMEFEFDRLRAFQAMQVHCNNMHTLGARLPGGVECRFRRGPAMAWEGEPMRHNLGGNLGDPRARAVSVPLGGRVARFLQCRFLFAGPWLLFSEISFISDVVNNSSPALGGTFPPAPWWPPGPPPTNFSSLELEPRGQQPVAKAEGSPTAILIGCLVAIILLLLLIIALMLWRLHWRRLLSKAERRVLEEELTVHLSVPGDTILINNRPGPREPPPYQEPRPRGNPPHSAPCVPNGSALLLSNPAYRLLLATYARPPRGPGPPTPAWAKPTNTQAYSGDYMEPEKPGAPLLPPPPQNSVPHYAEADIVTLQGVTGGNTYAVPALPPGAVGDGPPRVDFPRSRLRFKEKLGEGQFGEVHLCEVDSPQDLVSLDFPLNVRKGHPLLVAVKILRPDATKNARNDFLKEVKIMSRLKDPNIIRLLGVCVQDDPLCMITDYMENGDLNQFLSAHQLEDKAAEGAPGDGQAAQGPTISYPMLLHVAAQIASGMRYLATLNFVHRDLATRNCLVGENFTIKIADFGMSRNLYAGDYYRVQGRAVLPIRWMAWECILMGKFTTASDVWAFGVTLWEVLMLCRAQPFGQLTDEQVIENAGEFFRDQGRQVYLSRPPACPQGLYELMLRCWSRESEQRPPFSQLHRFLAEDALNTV

`COc1ccn2c(C(=O)N3CCc4c(C(=O)Nc5cncc(C(F)(F)F)c5)csc4C3)cnc2c1` [Example 142, 6-(7-methoxyimidazo[1,2-a]pyridine-3-carbonyl)-N-(5-(trifluoromethyl)pyridin-3-yl)-4,5,6,7-tetrahydrothieno[2,3-c]pyridine-3-carboxamide]: the Ki at DDR1 [1] and on DDR2 was less than 25 nM each time. At DDR1 [2], the IC50 (as a rule, the concentration at which inhibition is half-maximal) is 50 to 80 nM.
As for `O=C(Nc1cccc(C(F)(F)F)c1)c1csc2c1CCN(C(=O)c1cnc3[nH]ncc3c1)C2` [Example 91, 6-(1H-pyrazolo[3,4-b]pyridine-5-carbonyl)-N-(3-(trifluoromethyl)phenyl)-4,5,6,7-tetrahydrothieno[2,3-c]pyridine-3-carboxamide], the Ki on DDR1 [1] and at DDR2 was less than 25 nM throughout. On DDR1 [2], this compound came in with an IC50 of less than 25 nM.
As to `O=C(Nc1cncc(C(F)(F)F)c1)c1csc2c1CCN(Cc1ncnc3[nH]ccc13)C2` [Example 155, 6-((7H-pyrrolo[2,3-d]pyrimidin-4-yl)methyl)-N-(5-(trifluoromethyl)pyridin-3-yl)-4,5,6,7-tetrahydrothieno[2,3-c]pyridine-3-carboxamide], the Ki on DDR1 [1] and at DDR2 was less than 25 nM in each case. Further, the IC50 against DDR1 [2] fell in the range of 25 to 50 nM.
For the compound `CC(C)(c1cc(NC(=O)c2csc3c2CCN(C(=O)c2cnn4ccncc24)C3)no1)C(F)(F)F` [Example 126, 6-(pyrazolo[1,5-a]pyrazine-3-carbonyl)-N-(5-(1,1,1-trifluoro-2-methylpropan-2-yl)isoxazol-3-yl)-4,5,6,7-tetrahydrothieno[2,3-c]pyridine-3-carboxamide], the Ki on DDR1 [1] and at DDR2 was less than 25 nM each time. The IC50 against DDR1 [2] lay within 25 to 50 nM.
Consider `CN1CCC(Oc2ccc(NC(=O)c3csc4c3CCN(C(=O)c3cnc5ccccn35)C4)cc2C(F)(F)F)C1` (stereo not drawn) [Example 31, 6-(imidazo[1,2-a]pyridine-3-carbonyl)-N-(4-((1-methylpyrrolidin-3-yl)oxy)-3-(trifluoromethyl)phenyl)-4,5,6,7-tetrahydrothieno[2,3-c]pyridine-3-carboxamide], for which the Ki on DDR1 [1] and at DDR2 was less than 25 nM throughout. The IC50 at DDR1 [2] was in the range of 50 to 80 nM.
Consider `CC(C)n1nc(C(C)(C)C)cc1NC(=O)c1csc2c1CCN(C(=O)c1cnc3ccccn13)C2` [Example 38, N-(3-(tert-butyl)-1-isopropyl-1H-pyrazol-5-yl)-6-(imidazo[1,2-a]pyridine-3-carbonyl)-4,5,6,7-tetrahydrothieno[2,3-c]pyridine-3-carboxamide], for which the Ki on DDR1 [1] and on DDR2 was less than 25 nM each time. Also, the IC50 at DDR1 [2] lay within 25 to 50 nM.
As to `O=C(Nc1cccc(C(F)(F)F)c1)c1csc2c1CCN(C(=O)c1cnc3ccc(OCCO)cn13)C2` [Example 137, 6-(6-(2-hydroxyethoxy)imidazo[1,2-a]pyridine-3-carbonyl)-N-(3-(trifluoromethyl)phenyl)-4,5,6,7-tetrahydrothieno[2,3-c]pyridine-3-carboxamide], the Ki on DDR1 [1] and on DDR2 was less than 25 nM each time. Besides, the 50% inhibitory concentration (IC50) against DDR1 [2] was less than 25 nM.
Turning to `O=C(Nc1cccc(C(F)(F)F)c1)c1csc2c1CCN(C(=O)c1cnc3[nH]ccc3c1)C2` [Example 68, 6-(1H-pyrrolo[2,3-b]pyridine-5-carbonyl)-N-(3-(trifluoromethyl)phenyl)-4,5,6,7-tetrahydrothieno[2,3-c]pyridine-3-carboxamide], the Ki at DDR1 [1] and at DDR2 was less than 25 nM each time. At DDR1 [2], this compound yielded an IC50 of 25 to 50 nM.
As to `Cc1ccc(-n2nc(C(C)(C)C)cc2NC(=O)c2csc3c2CCN(C(=O)c2cnc4ccccn24)C3)cc1` [Example 2, N-(3-(tert-butyl)-1-(p-tolyl)-1H-pyrazol-5-yl)-6-(imidazo[1,2-a]pyridine-3-carbonyl)-4,5,6,7-tetrahydrothieno[2,3-c]pyridine-3-carboxamide], the Ki at DDR1 [1] and at DDR2 was less than 25 nM throughout. Besides, the IC50 at DDR1 [2] lay in the range of 25 to 50 nM.
For the compound `Cn1nc(C2(C(F)(F)F)CC2)cc1NC(=O)c1csc2c1CCN(C(=O)c1cnc3ccccn13)C2` [Example 114, 6-(imidazo[1,2-a]pyridine-3-carbonyl)-N-(1-methyl-3-(1-(trifluoromethyl)cyclopropyl)-1H-pyrazol-5-yl)-4,5,6,7-tetrahydrothieno[2,3-c]pyridine-3-carboxamide], the Ki on DDR1 [1] and on DDR2 was less than 25 nM throughout. Also, on DDR1 [2], the IC50 lay within 50 to 80 nM.
On to `O=C(Nc1cncc(C(F)(F)F)c1)c1csc2c1CCN(C(=O)c1cnc3n1CCCN3)C2` [Example 120, 6-(5,6,7,8-tetrahydroimidazo[1,2-a]pyrimidine-3-carbonyl)-N-(5-(trifluoromethyl)pyridin-3-yl)-4,5,6,7-tetrahydrothieno[2,3-c]pyridine-3-carboxamide], for which the Ki at DDR1 [1] and on DDR2 was less than 25 nM in each case. Besides, the IC50 against DDR1 [2] is 50 to 80 nM.
As to `CCC(C)(C)c1cc(NC(=O)c2csc3c2CCN(C(=O)c2cnc4ccccn24)C3)on1` [Example 119, 6-(imidazo[1,2-a]pyridine-3-carbonyl)-N-(3-(tert-pentyl)isoxazol-5-yl)-4,5,6,7-tetrahydrothieno[2,3-c]pyridine-3-carboxamide], the Ki at DDR1 [1] and at DDR2 was less than 25 nM throughout. The IC50 at DDR1 [2] lay in the range of 25 to 50 nM.
As to `CN(C)[C@@H]1CCN(Cc2cc(NC(=O)c3csc4c3CCN(Cc3cnc5[nH]ccc5c3)C4)cc(C(F)(F)F)c2)C1` [Example 159, (R)-6-((1H-pyrrolo[2,3-b]pyridin-5-yl)methyl)-N-(3-((3-(dimethylamino)pyrrolidin-1-yl)methyl)-5-(trifluoromethyl)phenyl)-4,5,6,7-tetrahydrothieno[2,3-c]pyridine-3-carboxamide], the Ki at DDR1 [1] and on DDR2 was less than 25 nM each time. This compound also yielded an IC50 at DDR1 [2] of 25 to 50 nM.
As to `CC(C)(C)c1cc(NC(=O)c2csc3c2CCN(C(=O)c2cnc4ccccn24)C3)ccn1` [Example 37, N-(2-(tert-butyl)pyridin-4-yl)-6-(imidazo[1,2-a]pyridine-3-carbonyl)-4,5,6,7-tetrahydrothieno[2,3-c]pyridine-3-carboxamide], the Ki on DDR1 [1] and on DDR2 was less than 25 nM in each case. Also, the half-maximal inhibitory concentration (IC50) against DDR1 [2] was in the range of 25 to 50 nM.
For the compound `O=C(Nc1cncc(OC(F)F)c1)c1csc2c1CCN(C(=O)c1cnn3ccncc13)C2` [Example 125, N-(5-(difluoromethoxy)pyridin-3-yl)-6-(pyrazolo[1,5-a]pyrazine-3-carbonyl)-4,5,6,7-tetrahydrothieno[2,3-c]pyridine-3-carboxamide], the Ki at DDR1 [1] and at DDR2 was less than 25 nM in each case. Moreover, the IC50 against DDR1 [2] lay within 25 to 50 nM.
Turning to `O=C(Nc1cncc(C(F)(F)F)c1)c1csc2c1CCN(C(=O)c1cnc3ccccn13)C2` [Example 28, 6-(imidazo[1,2-a]pyridine-3-carbonyl)-N-(5-(trifluoromethyl)pyridin-3-yl)-4,5,6,7-tetrahydrothieno[2,3-c]pyridine-3-carboxamide], the Ki on DDR1 [1] and on DDR2 was less than 25 nM each time. In addition, the IC50 on DDR1 [2] was less than 25 nM.
As for `O=C(Nc1cc(CN2CC3CC2CO3)cc(C(F)(F)F)c1)c1csc2c1CCN(C(=O)c1cnc3ccccn13)C2` (stereo not drawn) [Example 50, N-(3-((2-oxa-5-azabicyclo[2.2.1]heptan-5-yl)methyl)-5-(trifluoromethyl)phenyl)-6-(imidazo[1,2-a]pyridine-3-carbonyl)-4,5,6,7-tetrahydrothieno[2,3-c]pyridine-3-carboxamide], the Ki on DDR1 [1] and at DDR2 was less than 25 nM each time. In addition, on DDR1 [2], the IC50 was in the range of 25 to 50 nM.
Take `O=C(Nc1nccc(C(F)(F)F)n1)c1csc2c1CCN(C(=O)c1cnc3ccccn13)C2` [Example 30, 6-(imidazo[1,2-a]pyridine-3-carbonyl)-N-(4-(trifluoromethyl)pyrimidin-2-yl)-4,5,6,7-tetrahydrothieno[2,3-c]pyridine-3-carboxamide]: the Ki on DDR1 [1] and at DDR2 was less than 25 nM each time. In addition, at DDR1 [2], the IC50 lay within 50 to 80 nM.
